Measured values: US20250092353A1, “COMMENSAL FUNGUS AND USES THEREOF” (YEDA RESEARCH AND DEVELOPMENT CO. LTD., priority 2022, published 2025)

Legend:
[1] = tested on: C. albicans SC5314 (ENO1-GFP); assay: In vivo competition with C. albicans in germ-free animals; design: species or system mice; settings: oral mixture of the two fungi
Text: (§1) FIGS. 3A-3M include fluorescent micrographs, graphs, and a scheme, showing K. weizmannii competition with C. albicans in colonized animals. (3A) A representative picture of a far-red fluorescent reporter Kazachstania strain (K. weizmannii ENO1-Mirf). (3B-C) Recoverable fecal K. weizmannii in colonized wild-type animals (without antibiotics) one and six months after single oral K. weizmannii ENO1-Mirf inoculation. (3D) Flow cytometric analysis of C. albicans SC5314 (ENO1-GFP), K. weizmannii (ENO1-Mirf), and mixed cultures used for oral inoculation (3E). […] Quantification (n=3-5 mice per group, 4 independent experiments) (see (3D). (3H) Schematic non-limiting outline of a co-housing experiment. (3I) Representative flow cytometric feces analysis of colonized mice 4 weeks after initial colonization (before cohousing) and 2 weeks after co-housing. (N=4 per group). (3J) Percentages of respective labelled fungi in feces of C. albicans, K. weizmannii colonized animals, before and after co-housing in Abx presence (except for day 48 and 58); antibiotics withdrawal on day 46 of cohousing, n=4 per group, representative of 2 independent experiments. (3K) Flow cytometric analysis of feces of germfree animals 1 week after oral inoculation of single fungi cultures or mixed C. albicans SC5314 (ENO1-GFP)/K. weizmannii (ENO1-Mirf) culture. […]

Th17 cells = assay: RORγt+ Th17 cells in mesenteric and peripheral lymph nodes of colonized mice; assay type: in vivo; settings: 5 weeks colonization
Text: FIGS. 4A-4F include graphs showing humoral and cellular immune responses to C. albicans and Kazachstania sp. (4A) Flow cytometric analysis of myeloid blood cell compartment of mice 4 weeks colonized with C. albicans or K. weizmannii. Neutrophils, classical and non-classical monocytes are defined as Ly6G+CD 115−, Ly6C+CD 115+, and […], respectively. N=8-21 mice, pooled from 3 independent experiments. Gating strategy, left, results, right. (4B) Flow cytometric analysis of humoral anti-fungal reactivity. Gating strategy for the determination of serum immunoglobulin binding to cultured C. albicans or K. weizmannii. (4C) Anti-C. albicans and K. weizmannii IgA and IgG serum reactivity of single-colonized animals, measured as shown in (4B). Note that most but not all animals harbor cross-reactive sera. (4D) Representative gating strategy of RORγt+ T cells (left); percentage of RORγt+ cells among TCRβ CD4+ T cells 5 weeks upon C. albicans or K. weizmannii colonization, n=3-5 mice per group, 3 independent experiments (right). […] EC damage was assessed using the LDH assay as described in (Allert et al., 2018). […]
Methods adhered to published guidelines (Cossarizza et al., 2019). Flow cytometry samples were recorded on BD LSR Fortessa 4 lasers or Cytek Aurora followed by data analysis using the FlowJo software (Treestar).

[2] = tested on: C. albicans SC5314 (ENO1-GFP); assay: In vivo competition with C. albicans in Abx-treated SPF mice (co-inoculation, cohousing)
Text: as §1

Kazachstania weizmannii [K. weizmannii]
C. albicans colonization after co-inoculation [1]: prevented efficient C. albicans colonization
Th17 cell expansion (Th17 cells): no Th17 cell expansion was observed
C. albicans colonization after co-inoculation ([2]; Abx-treated mice, 1:1 mixture of K. weizmannii and C. albicans): Candida colonization was prevented
displacement of established commensal C. albicans ([2]; mice stably colonized with C. albicans (on Abx) cohoused with K. weizmannii-harboring mice): progressive rapid ousting of C. albicans
